{"source": "patent US20250084082A1", "about": "“HUPERZINE B CRYSTAL AND PREPARATION AND APPLICATION THEREOF” (priority 2021, published 2025)", "key": {"[1]": {"experiment": "Hygroscopicity test (Chinese Pharmacopoeia 2020)", "assay_type": "physicochemical", "method": "The test was carried out with reference to the requirements of hygroscopicity test in the General Technical Requirements of Part IV of the Chinese Pharmacopoeia 2020 Edition.\nMethods: A dry stoppered glass weighing flask (outer diameter 50 mm, height 15 mm) was placed in a suitable 25° C.±1° C. constant temperature desiccator (with ammonium chloride or ammonium sulfate saturated solution placed in the lower part) or an artificial climate chamber (with a set temperature of 25° C.±1° C. and a relative humidity of 80%±2%) prior to the test, and the weight (m1) was weighed precisely.\nThe thickness of the test sample was generally 1 mm, and the weight (m2) was weighed precisely. The weighing flask was left open, and was placed in the above constant temperature and humidity conditions together with the cap of the flask for 24 hours.\nThe weighing flask was closed with the cap and weighed precisely (m3)."}, "[2]": {"experiment": "Stability of crystals: high temperature test (60° C.)", "assay_type": "physicochemical", "from_the_text": "(§1) The conditions and methods for detecting the relevant substances involved in the present invention are high performance liquid chromatography determination.\nThe samples were taken and tested on day 5 and day 10, respectively, and the results were compared with those on day 0.The results are shown in Table 5."}, "[3]": {"experiment": "Stability of crystals: high humidity test (RH 75±5%)", "assay_type": "physicochemical", "conditions": "around 25° C.", "from_the_text": "as §1\nThe samples were taken and tested on day 5 and day 10, respectively, and the results were compared with that of day 0."}, "[4]": {"experiment": "Stability of crystals: strong light irradiation test (4,500±500 Lx)", "assay_type": "physicochemical", "from_the_text": "as §1\nThe distance was adjusted so that the light intensity was 4,500±500 Lx. The samples were taken and tested on day 5 and day 10, respectively, and the results were compared with that of day 0."}, "BuchE": {"target": "T1, BuchE (Rattus norvegicus, UniProt Q9JKC1)", "T1 construct": "The effect of Huperzine B on BuchE activity in the serum of rats; from tissue; host or cells: SD rat serum (ex vivo after gavage)", "T1 sequence (Q9JKC1 24-597)": "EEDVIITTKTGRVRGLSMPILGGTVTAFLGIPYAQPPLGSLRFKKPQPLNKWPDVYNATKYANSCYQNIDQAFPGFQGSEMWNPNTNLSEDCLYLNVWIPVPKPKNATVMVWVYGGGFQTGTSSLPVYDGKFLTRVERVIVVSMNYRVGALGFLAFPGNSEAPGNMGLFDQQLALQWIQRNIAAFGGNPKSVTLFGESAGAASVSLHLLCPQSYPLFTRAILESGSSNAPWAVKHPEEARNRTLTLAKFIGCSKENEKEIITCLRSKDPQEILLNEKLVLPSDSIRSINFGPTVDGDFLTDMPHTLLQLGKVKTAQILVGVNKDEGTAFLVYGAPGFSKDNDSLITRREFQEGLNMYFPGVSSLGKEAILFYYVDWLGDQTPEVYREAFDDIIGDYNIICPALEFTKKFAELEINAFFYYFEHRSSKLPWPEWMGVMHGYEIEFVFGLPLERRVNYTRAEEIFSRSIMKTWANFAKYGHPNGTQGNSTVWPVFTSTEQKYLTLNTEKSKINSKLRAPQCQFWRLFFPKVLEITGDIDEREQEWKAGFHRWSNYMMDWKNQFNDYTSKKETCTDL", "experiment": "Cholinesterase inhibitory activity in vivo: BuchE activity in rat serum after gavage", "parameters": "species or system SD rats", "method": "Experimental animals: SD rats, clean grade, male, body weight 180-200 g, provided by Shanghai SLAC Laboratory Animal Co., Ltd, free to drink and ingest during the experimental period, indoor temperature 22-24° C., humidity 45-70%.\nMain reagents: S-Butyrylthiocholine iodide, S-Acetylthiocholine iodide, Kaumas Brilliant Blue, sodium hydroxide, ethyl carbamate (urethane), phosphoric acid, sodium chloride, sodium bicarbonate, potassium dihydrogen phosphate, ethanol, sodium dodecyl sulfate, 5,5′-Dithiobis-(2-nitrobenzoic acid) (DTNB), hydrochloric acid; the above chemical reagents were purchased from Sinopharm Chemical Reagent Co., Ltd. Physiological saline, product of Shanghai Bangjing Industry Co., Ltd; bovine serum albumin, purchased from Meilun Biologicals.\nThe equation for calculating the activity and the activity rate of “butyrylcholinesterase” was the same as that for “acetylcholinesterase”.\nStatistical analysis: SPSS 18 statistical software and EXCEL were applied. Measurement data were expressed as “mean±standard deviation (x±s)”, t-test was used for comparison between two groups, and LSD method was used for pairwise comparison between groups when there was homogeneity of variance, and Dunnett's method was used for analysis when there was heterogeneity of variance. P<0.05 indicates significant differences."}, "[5]": {"conditions": "25° C.±1° C., relative humidity 80%±2%, 24 hours"}}}
{"smiles": "CC1=CC2Cc3[nH]c(=O)ccc3C3(C1)NCCCC23", "note": "[Crystal form A, (4aR, 5R, 10bR)-1,2,3,4,4a,4,6,10b octahydro-12-methyl-5,10b-propeno-1,7-phenanthrolin-8 (7H)-one]", "values": [{"measurement": "Conclusion: (hygroscopicity)", "setting": "[1]; [5]", "value": "No or almost no"}, {"measurement": "Percentage of weight gain (%)", "setting": "[1]; [5]", "value": 0.05, "unit": "%"}, {"measurement": "hygroscopicity (in words)", "setting": "[1]; compared with Huperzine B crystal form B", "value": "low hygroscopicity"}, {"measurement": "Appearance", "setting": "[2]; day 0", "value": "Off-white"}, {"measurement": "Content", "setting": "[2]; day 0", "value": 100.1, "unit": "%"}, {"measurement": "relevant substances", "setting": "[2]; day 0", "value": 0.12}, {"measurement": "Appearance", "setting": "[2]; day 5", "value": "Off-white"}, {"measurement": "Content", "setting": "[2]; day 5", "value": 100.2, "unit": "%"}, {"measurement": "relevant substances", "setting": "[2]; day 5", "value": 0.19}, {"measurement": "Appearance", "setting": "[2]; day 10", "value": "Off-white"}, {"measurement": "Content", "setting": "[2]; day 10", "value": 99.7, "unit": "%"}, {"measurement": "relevant substances", "setting": "[2]; day 10", "value": 0.21}, {"measurement": "Appearance", "setting": "[3]; day 0", "value": "Off-white powder"}, {"measurement": "Content", "setting": "[3]; day 0", "value": 100.1, "unit": "%"}, {"measurement": "Moisture", "setting": "[3]; day 0", "value": 6.93, "unit": "%"}, {"measurement": "Appearance", "setting": "[3]; day 5", "value": "Off-white powder"}, {"measurement": "Content", "setting": "[3]; day 5", "value": 100.2, "unit": "%"}, {"measurement": "Moisture", "setting": "[3]; day 5", "value": 6.95, "unit": "%"}, {"measurement": "Appearance", "setting": "[3]; day 10", "value": "Off-white powder"}, {"measurement": "Content", "setting": "[3]; day 10", "value": 99.9, "unit": "%"}, {"measurement": "Moisture", "setting": "[3]; day 10", "value": 6.98, "unit": "%"}, {"measurement": "Appearance", "setting": "[4]; day 0", "value": "Off-white powder"}, {"measurement": "Content", "setting": "[4]; day 0", "value": 100.1, "unit": "%"}, {"measurement": "relevant substances", "setting": "[4]; day 0", "value": 0.12}, {"measurement": "Appearance", "setting": "[4]; day 5", "value": "Off-white powder"}, {"measurement": "Content", "setting": "[4]; day 5", "value": 99.8, "unit": "%"}, {"measurement": "relevant substances", "setting": "[4]; day 5", "value": 0.22}, {"measurement": "Appearance", "setting": "[4]; day 10", "value": "Off-white powder"}, {"measurement": "Content", "setting": "[4]; day 10", "value": 98.9, "unit": "%"}, {"measurement": "relevant substances", "setting": "[4]; day 10", "value": 0.28}, {"measurement": "effect on BuchE activity in the rat serum (in words)", "setting": "BuchE; rat serum", "value": "certain inhibitory effect"}]}
{"smiles": "CC1=CC2Cc3[nH]c(=O)ccc3C3(C1)NCCCC23", "note": "[Crystal form B, (4aR, 5R, 10bR)-1,2,3,4,4a,4,6,10b octahydro-12-methyl-5,10b-propeno-1,7-phenanthrolin-8 (7H)-one]", "values": [{"measurement": "Percentage of weight gain (%)", "setting": "[1]; [5]", "value": 2.88, "unit": "%"}, {"measurement": "Appearance", "setting": "[2]; day 0", "value": "Off-white"}, {"measurement": "Content", "setting": "[2]; day 0", "value": 99.8, "unit": "%"}, {"measurement": "relevant substances", "setting": "[2]; day 0", "value": 0.18}, {"measurement": "Appearance", "setting": "[2]; day 5", "value": "Off-white"}, {"measurement": "Content", "setting": "[2]; day 5", "value": 99.5, "unit": "%"}, {"measurement": "relevant substances", "setting": "[2]; day 5", "value": 0.29}, {"measurement": "Appearance", "setting": "[2]; day 10", "value": "Off-white"}, {"measurement": "Content", "setting": "[2]; day 10", "value": 98.9, "unit": "%"}, {"measurement": "relevant substances", "setting": "[2]; day 10", "value": 0.41}, {"measurement": "Appearance", "setting": "[3]; day 0", "value": "Off-white powder"}, {"measurement": "Content", "setting": "[3]; day 0", "value": 99.8, "unit": "%"}, {"measurement": "Moisture", "setting": "[3]; day 0", "value": 6.13, "unit": "%"}, {"measurement": "Appearance", "setting": "[3]; day 5", "value": "Off-white powder"}, {"measurement": "Content", "setting": "[3]; day 5", "value": 99.7, "unit": "%"}, {"measurement": "Moisture", "setting": "[3]; day 5", "value": 7.13, "unit": "%"}, {"measurement": "Appearance", "setting": "[3]; day 10", "value": "Off-white powder"}, {"measurement": "Content", "setting": "[3]; day 10", "value": 99.6, "unit": "%"}, {"measurement": "Moisture", "setting": "[3]; day 10", "value": 7.53, "unit": "%"}, {"measurement": "Appearance", "setting": "[4]; day 0", "value": "Off-white powder"}, {"measurement": "Content", "setting": "[4]; day 0", "value": 99.8, "unit": "%"}, {"measurement": "relevant substances", "setting": "[4]; day 0", "value": 0.18}, {"measurement": "Appearance", "setting": "[4]; day 5", "value": "Off-white powder"}, {"measurement": "Content", "setting": "[4]; day 5", "value": 99.5, "unit": "%"}, {"measurement": "relevant substances", "setting": "[4]; day 5", "value": 0.32}, {"measurement": "Appearance", "setting": "[4]; day 10", "value": "Off-white powder"}, {"measurement": "Content", "setting": "[4]; day 10", "value": 98.6, "unit": "%"}, {"measurement": "relevant substances", "setting": "[4]; day 10", "value": 0.49}]}
{"smiles": "CC1=CC2Cc3[nH]c(=O)ccc3C3(C1)NCCCC23", "note": "[hupB, (4aR, 5R, 10bR)-1,2,3,4,4a,4,6,10b octahydro-12-methyl-5,10b-propeno-1,7-phenanthrolin-8 (7H)-one]", "values": [{"measurement": "inhibition at 0.12 mg/kg", "setting": "BuchE; po, rat serum BuchE, 0.12 mg/kg by gavage, x±s, read-out: Inhibition rate (%)", "value": "1 ± 46.5", "unit": "%"}, {"measurement": "inhibition at 0.24 mg/kg", "setting": "BuchE; po, rat serum BuchE, 0.24 mg/kg by gavage, x±s, read-out: Inhibition rate (%)", "value": "19.9 ± 28.1", "unit": "%"}, {"measurement": "inhibition at 0.48 mg/kg", "setting": "BuchE; po, rat serum BuchE, 0.48 mg/kg by gavage, x±s, read-out: Inhibition rate (%)", "value": "29.2 ± 13.7", "unit": "%"}, {"measurement": "Serum BuchE (nmol/min/mg protein)", "setting": "BuchE; rat serum, 0.12 mg/kg by gavage, x±s", "value": "6.83 ± 3.21", "unit": "nmol/min/mg protein"}, {"measurement": "Serum BuchE (nmol/min/mg protein)", "setting": "BuchE; rat serum, 0.24 mg/kg by gavage, x±s", "value": "5.53 ± 1.94", "unit": "nmol/min/mg protein"}, {"measurement": "Serum BuchE (nmol/min/mg protein)", "setting": "BuchE; rat serum, 0.48 mg/kg by gavage, x±s", "value": "4.88 ± 0.94", "unit": "nmol/min/mg protein"}]}
